Biological target: T1, Lp-PLA2 in human plasma (Homo sapiens, UniProt Q13093)
T1 construct: from tissue; host or cells: pooled human plasma
T1 sequence (Q13093 22-441): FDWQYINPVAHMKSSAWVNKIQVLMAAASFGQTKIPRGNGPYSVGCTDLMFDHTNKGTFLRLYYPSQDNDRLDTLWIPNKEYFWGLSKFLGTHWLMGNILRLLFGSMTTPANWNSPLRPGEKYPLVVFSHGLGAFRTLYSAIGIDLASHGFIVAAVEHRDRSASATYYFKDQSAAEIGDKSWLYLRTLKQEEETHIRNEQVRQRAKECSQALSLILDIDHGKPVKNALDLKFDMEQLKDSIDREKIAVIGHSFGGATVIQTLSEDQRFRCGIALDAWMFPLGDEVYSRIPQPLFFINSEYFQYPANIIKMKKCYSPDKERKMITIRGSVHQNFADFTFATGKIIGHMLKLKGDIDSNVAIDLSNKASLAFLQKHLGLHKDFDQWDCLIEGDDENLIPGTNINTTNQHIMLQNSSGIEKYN
Assay: Lp-PLA2 human plasma assay (Thio-PAF assay)
Type: biochemical
Details: pooled human plasma; read-out: pIC50 values in the thio-PAF assay (converted)
Excerpt: The human plasma assay utilizes a thioester analog of PAF (phosphatidylcholine), where hydrolysis yields to the formation of a phospholipid containing a free thiol group. The amount of thiol is quantitated continuously by reacting with CPM (7-diethylamino-3-(4′-maleimidylphenyl)-4-methylcoumarin), a maleimide which increases in fluoresence after Michael addition of thiols. This assay may detect the activity of Lp-PLA2 in human plasma, as determined by specific inhibition by Lp-PLA2 inhibitors.
The thio-PAF assay was run as a quenched 15 μL assay. Compounds source plate was prepared by making 1:3 (by volume) serial dilution of the compounds into pure DMSO on 384-well microplate. 0.01 μL of compounds on compound source plate were transferred to 384 well Greiner 784076 (black) low-volume plates by ECHO liquid dispenser. 8 μL pooled human plasma, which was previously aliquoted and frozen, was added. Plates were centrifuged for 10 sec at 500 rpm. After 30 minutes preincubation, 2 μL of substrate solution comprising 2.5 mM 2-thio-PAF [from ethanol stock], 32 μM CPM [from a DMSO stock] and 3.2 mM NEM (N-ethylmaleimide) [made fresh daily in DMSO] in assay buffer of 50 mM HEPES, pH 7.4, 150 mM NaCl, 1 mM CHAPS was added to 384 well Greiner 784076 (black) low-volume plates by BRAVO liquid handling station. After 2 mins, reaction was quenched with 5 μL of 5% aqueous trifluoroacetic acid (TFA). Plates were covered to protect from light and incubated for 40 min at room temperature. Plates were read at ex: 380/em: 485 using-Envision microplate reader. pIC50 data, curve and QC analysis was conducted by using XLFit module in Excel.

Row | Compound | IC50 [nM]
1 | CN1c2cc(OCc3cc(F)cc(F)c3)nc(=O)n2CCC1(C)C [E74, 8-((3,5-difluorobenzyl)oxy)-1,2,2-trimethyl-3,4-dihydro-1H-pyrimido[1,6-a]pyrimidin-6(2H)-one] | ≤ 100
2 | C[C@@H]1CCn2c(cc(OCc3ccc(F)cc3)nc2=O)N1 [E27, (R)-8-((4-fluorobenzyl)oxy)-2-methyl-3,4-dihydro-1H-pyrimido[1,6-a]pyrimidin-6(2H)-one] | ≤ 100
3 | [2H]C([2H])(Oc1cc2n(c(=O)n1)CCC(C)(C)N2C)c1cc(F)c(F)c(F)c1 [E55, 8-(dideutero(3,4,5-trifluorophenyl)methoxy)-1,2,2-trimethyl-3,4-dihydro-1H-pyrimido[1,6-a]pyrimidin-6(2H)-one] | ≤ 100
4 | CN1c2cc(OCc3cccc(F)c3F)nc(=O)n2CCC1(C)C [E72, 8-((2,3-difluorobenzyl)oxy)-1,2,2-trimethyl-3,4-dihydro-1H-pyrimido[1,6-a]pyrimidin-6(2H)-one] | ≤ 100
5 | CC(C)N1c2cc(OCc3cccc(F)c3F)nc(=O)n2CC[C@@H]1C [E139, (S)-8-((2,3-difluorobenzyl)oxy)-1-isopropyl-2-methyl-3,4-dihydro-1H-pyrimido[1,6-a]pyrimidin-6(2H)-one] | ≤ 100
6 | CN1c2cc(OCc3cccc(F)c3)nc(=O)n2CCC1(C)C [E134, 8-((3-fluorobenzyl)oxy)-1,2,2-trimethyl-3,4-dihydro-1H-pyrimido[1,6-a]pyrimidin-6(2H)-one] | ≤ 100
7 | [2H]C([2H])(Oc1cc2n(c(=O)n1)CC[C@@H](C)N2C)c1cc(F)cc(F)c1 [E50, (R)-8-((3,5-difluorophenyl)dideuteromethoxy)-1,2-dimethyl-3,4-dihydro-1H-pyrimido[1,6-a]pyrimidin-6(2H)-one] | ≤ 100
8 | CCN1c2cc(OCc3cccc(F)c3F)nc(=O)n2CC[C@@H]1C [E53, (S)-8-((2,3-difluorobenzyl)oxy)-1-ethyl-2-methyl-3,4-dihydro-1H-pyrimido[1,6-a]pyrimidin-6(2H)-one] | ≤ 100
9 | C[C@H]1CCn2c(cc(OCc3ccc(F)c(F)c3)nc2=O)N1 [E40, (S)-8-((3,4-difluorobenzyl)oxy)-2-methyl-3,4-dihydro-1H-pyrimido[1,6-a]pyrimidin-6(2H)-one] | ≤ 100
10 | [2H]C([2H])(Oc1cc2n(c(=O)n1)CC[C@H](C)N2C)c1cc(F)cc(F)c1 [E49, (S)-8-((3,5-difluorophenyl)dideuteromethoxy)-1,2-dimethyl-3,4-dihydro-1H-pyrimido[1,6-a]pyrimidin-6(2H)-one] | ≤ 100
11 | C[C@H]1CCn2c(cc(OCc3cc(F)c(F)c(F)c3)nc2=O)N1 [E45, (S)-2-methyl-8-((3,4,5-trifluorobenzyl)oxy)-3,4-dihydro-1H-pyrimido[1,6-a]pyrimidin-6(2H)-one] | ≤ 10
12 | CCN1c2cc(OCc3cc(F)c(F)cc3F)nc(=O)n2CC[C@@H]1C [E52, (S)-1-ethyl-2-methyl-8-((2,4,5-trifluorobenzyl)oxy)-3,4-dihydro-1H-pyrimido[1,6-a]pyrimidin-6(2H)-one] | ≤ 100
13 | [2H]C([2H])(Oc1cc2n(c(=O)n1)CC[C@H](C)N2C)c1cc(F)c(F)c(F)c1 [E36, (S)-8-(dideutero(3,4,5-trifluorophenyl)methoxy)-1,2-dimethyl-3,4-dihydro-1H-pyrimido[1,6-a]pyrimidin-6(2H)-one] | ≤ 100
14 | [2H]C([2H])(Oc1cc2n(c(=O)n1)CC[C@@H](C)N2C)c1cccc(F)c1F [E19, (R)-8-((2,3-difluorophenyl)dideuteromethoxy)-1,2-dimethyl-3,4-dihydro-1H-pyrimido[1,6-a]pyrimidin-6(2H)-one] | ≤ 100

The remaining lines, values ahead:

Row | IC50 [nM] | Compound
15 | ≤ 100 | C[C@@H]1CCn2c(cc(OCc3cccc(F)c3F)nc2=O)N1C [E18, (R)-8-((2,3-difluorobenzyl)oxy)-1,2-dimethyl-3,4-dihydro-1H-pyrimido[1,6-a]pyrimidin-6(2H)-one]
16 | ≤ 10 | C[C@H]1CCn2c(cc(OCc3ccc(Oc4ccc(C(F)(F)F)cc4)c(C#N)c3)nc2=O)N1C [E61, (S)-5-(((1,2-dimethyl-6-oxo-2,3,4,6-tetrahydro-1H-pyrimido[1,6-a]pyrimidin-8-yl)oxy)methyl)-2-(4-(trifluoromethyl)phenoxy)benzonitrile]
17 | ≤ 100 | CC1CCn2c(cc(OCc3cccc(F)c3)nc2=O)N1C (stereo not shown) [E12, 8-((3-fluorobenzyl)oxy)-1,2-dimethyl-3,4-dihydro-1H-pyrimido[1,6-a]pyrimidin-6(2H)-one]
18 | ≤ 100 | C[C@@H]1CCn2c(cc(OCc3cccc(F)c3)nc2=O)N1C [E130, (R)-8-((3-fluorobenzyl)oxy)-1,2-dimethyl-3,4-dihydro-1H-pyrimido[1,6-a]pyrimidin-6(2H)-one]
19 | ≤ 10 | C[C@@H]1CCn2c(cc(OCc3cc(F)c(Oc4ccc(Cl)c(F)c4)c(F)c3)nc2=O)N1C [E63, (R)-8-((4-(4-chloro-3-fluorophenoxy)-3,5-difluorobenzyl)oxy)-1,2-dimethyl-3,4-dihydro-1H-pyrimido[1,6-a]pyrimidin-6(2H)-one]
20 | ≤ 10 | C[C@@H]1CCn2c(cc(OCc3cc(F)c(Oc4cccc(Cl)c4)c(F)c3)nc2=O)N1C [E64, (R)-8-((4-(3-chlorophenoxy)-3,5-difluorobenzyl)oxy)-1,2-dimethyl-3,4-dihydro-1H-pyrimido[1,6-a]pyrimidin-6(2H)-one]
21 | ≤ 100 | C[C@H]1CCn2c(cc(OCc3cccc(C#N)c3)nc2=O)N1C [E128, (S)-3-(((1,2-dimethyl-6-oxo-2,3,4,6-tetrahydro-1H-pyrimido[1,6-a]pyrimidin-8-yl)oxy)methyl)benzonitrile]
22 | ≤ 100 | C[C@H]1CCn2c(cc(OCc3cc(F)c(Oc4cccc(Cl)c4)c(F)c3)nc2=O)N1C [E59, (S)-8-((4-(3-chlorophenoxy)-3,5-difluorobenzyl)oxy)-1,2-dimethyl-3,4-dihydro-1H-pyrimido[1,6-a]pyrimidin-6(2H)-one]
23 | ≤ 100 | C[C@@H]1CCn2c(cc(OCc3cc(F)c(F)c(F)c3)nc2=O)N1C [E16, (R)-1,2-dimethyl-8-((3,4,5-trifluorobenzyl)oxy)-3,4-dihydro-1H-pyrimido[1,6-a]pyrimidin-6(2H)-one]
24 | ≤ 100 | C[C@H]1CCn2c(cc(OCc3cc(F)c(F)cc3F)nc2=O)N1C [E42, (S)-1,2-dimethyl-8-((2,4,5-trifluorobenzyl)oxy)-3,4-dihydro-1H-pyrimido[1,6-a]pyrimidin-6(2H)-one]
25 | ≤ 100 | CC1CCn2c(cc(OCc3ccc(F)cc3)nc2=O)N1C (stereo not shown) [E9, 8-((4-fluorobenzyl)oxy)-1,2-dimethyl-3,4-dihydro-1H-pyrimido[1,6-a]pyrimidin-6(2H)-one]
26 | ≤ 100 | C[C@@H]1CCn2c(cc(OCc3cccc(C#N)c3)nc2=O)N1C [E127, (R)-3-(((1,2-dimethyl-6-oxo-2,3,4,6-tetrahydro-1H-pyrimido[1,6-a]pyrimidin-8-yl)oxy)methyl)benzonitrile]
27 | ≤ 10 | C[C@H]1CCn2c(cc(OCc3ccc(Oc4ccc(Cl)c(F)c4)c(C#N)c3)nc2=O)N1C [E66, (S)-2-(4-chloro-3-fluorophenoxy)-5-(((1,2-dimethyl-6-oxo-2,3,4,6-tetrahydro-1H-pyrimido[1,6-a]pyrimidin-8-yl)oxy)methyl)benzonitrile]
28 | ≤ 10 | C[C@H]1CCn2c(cc(OCc3cc(F)c(Oc4ccc(Cl)c(F)c4)c(F)c3)nc2=O)N1C [E58, (S)-8-((4-(4-chloro-3-fluorophenoxy)-3,5-difluorobenzyl)oxy)-1,2-dimethyl-3,4-dihydro-1H-pyrimido[1,6-a]pyrimidin-6(2H)-one]

— US20150344485A1, “BICYCLIC PYRIMIDONE COMPOUNDS AS INHIBITORS OF LP-PLA2” (GLAXOSMITHKLINE INTELLECTUAL PROPERTY DEVELOPMENT LIMITED, priority 2013, published 2015)
